Source: ChEMBL document CHEMBL1201862, “PubChem BioAssay data set” (2004)
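Cultured in 96-well plates, cells were exposed to test compound for 48 hours across five concentrations. Here, GI50 denotes the concentration required for 50% inhibition of growth.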 Active and inactive are the calls of the source. No stated cut-off is given here; in the data, active = GI50 up to about 1.1 µM and inactive = higher.

Key:
Experiment in all cases: NCI-60 cell line screen, 48 h
786-0 = tested on: 786-0
A498 = tested on: A498
A549 = tested on: A549
ACHN = tested on: ACHN
BT-549 = tested on: BT-549
CAKI-1 = tested on: CAKI-1
CCRF-CEM = tested on: CCRF-CEM
COLO 205 = tested on: COLO 205
DU-145 = tested on: DU-145
EKVX = tested on: EKVX
HCC 2998 = tested on: HCC 2998
HCT-116 = tested on: HCT-116
HCT-15 = tested on: HCT-15
HL-60 = tested on: HL-60
HOP-62 = tested on: HOP-62
HOP-92 = tested on: HOP-92
HT-29 = tested on: HT-29
Hs-578T = tested on: Hs-578T
IGROV-1 = tested on: IGROV-1
K562 = tested on: K562
KM12 = tested on: KM12
LOX IMVI = tested on: LOX IMVI
M14 = tested on: M14
MCF7 = tested on: MCF7
MDA-MB-231 = tested on: MDA-MB-231
MDA-MB-435 = tested on: MDA-MB-435
MDA-N = tested on: MDA-N
MOLT-4 = tested on: MOLT-4
Malme-3M = tested on: Malme-3M
NCI-H226 = tested on: NCI-H226
NCI-H23 = tested on: NCI-H23
NCI-H460 = tested on: NCI-H460
NCI-H522 = tested on: NCI-H522
NCI/ADR-RES = tested on: NCI/ADR-RES
OVCAR-3 = tested on: OVCAR-3
OVCAR-4 = tested on: OVCAR-4
OVCAR-5 = tested on: OVCAR-5
OVCAR-8 = tested on: OVCAR-8
PC-3 = tested on: PC-3
RPMI-8226 = tested on: RPMI-8226
RXF 393 = tested on: RXF 393
SF-268 = tested on: SF-268
SF-295 = tested on: SF-295
SK-MEL-28 = tested on: SK-MEL-28
SK-MEL-2 = tested on: SK-MEL-2
SK-MEL-5 = tested on: SK-MEL-5
SK-OV-3 = tested on: SK-OV-3
SN12C = tested on: SN12C
SNB-19 = tested on: SNB-19
SNB-75 = tested on: SNB-75
SR = tested on: SR
SW-620 = tested on: SW-620
T47D = tested on: T47D
TK-10 = tested on: TK-10
U-251 = tested on: U-251
UACC-257 = tested on: UACC-257
UACC-62 = tested on: UACC-62
UO-31 = tested on: UO-31
SF-539 = tested on: SF-539

SMILES: CC1=CC2C3(C)C(C)(C(C)=CP3(=O)c3c(C(C)C)cc(C(C)C)cc3C(C)C)C1P2(=O)c1c(C(C)C)cc(C(C)C)cc1C(C)C (configuration not stated)
- GI50 (786-0): 2.12 µM (inactive)
- GI50 (A498): 2.16 µM (inactive)
- GI50 (A549): 2.42 µM (inactive)
- GI50 (ACHN): 2.68 µM (inactive)
- GI50 (BT-549): 1.77 µM (inactive)
- GI50 (CAKI-1): 3.01 µM (inactive)
- GI50 (CCRF-CEM): 2.04 µM (inactive)
- GI50 (COLO 205): 1.6 µM (inactive)
- GI50 (DU-145): 3.5 µM (inactive)
- GI50 (EKVX): 2.92 µM (inactive)
- GI50 (HCC 2998): 1.9 µM (inactive)
- GI50 (HCT-116): 1.75 µM (inactive)
- GI50 (HCT-15): 1.95 µM
- GI50 (HL-60): 1.09 µM (active)
- GI50 (HOP-62): 2.41 µM (inactive)
- GI50 (HOP-92): 1.64 µM (inactive)
- GI50 (HT-29): 2.11 µM (inactive)
- GI50 (Hs-578T): 2.28 µM (inactive)
- GI50 (IGROV-1): 1.98 µM (inactive)
- GI50 (K562): 1.91 µM (inactive)
- GI50 (KM12): 1.78 µM (inactive)
- GI50 (LOX IMVI): 1.58 µM (inactive)
- GI50 (M14): 1.92 µM (inactive)
- GI50 (MCF7): 2.26 µM (inactive)
- GI50 (MDA-MB-231): 1.77 µM (inactive)
- GI50 (MDA-MB-435): 1.85 µM (inactive)
- GI50 (MDA-N): 2.21 µM (inactive)
- GI50 (MOLT-4): 1.66 µM (inactive)
- GI50 (Malme-3M): 2.17 µM (inactive)
- GI50 (NCI-H226): 2.23 µM (inactive)
- GI50 (NCI-H23): 1.6 µM (inactive)
- GI50 (NCI-H460): 1.47 µM (inactive)
- GI50 (NCI-H522): 2.4 µM (inactive)
- GI50 (NCI/ADR-RES): 2.07 µM (inactive)
- GI50 (OVCAR-3): 1.75 µM (inactive)
- GI50 (OVCAR-4): 3.25 µM (inactive)
- GI50 (OVCAR-5): 2.06 µM (inactive)
- GI50 (OVCAR-8): 3.37 µM (inactive)
- GI50 (PC-3): 2.7 µM (inactive)
- GI50 (RPMI-8226): 0.916 µM (active)
- GI50 (RXF 393): 3.2 µM (inactive)
- GI50 (SF-268): 3.3 µM (inactive)
- GI50 (SF-295): 2.4 µM (inactive)
- GI50 (SK-MEL-28): 2.58 µM (inactive)
- GI50 (SK-MEL-2): 1.72 µM (inactive)
- GI50 (SK-MEL-5): 1.48 µM (inactive)
- GI50 (SK-OV-3): 2.38 µM (inactive)
- GI50 (SN12C): 2.58 µM (inactive)
- GI50 (SNB-19): 3.84 µM (inactive)
- GI50 (SNB-75): 3.05 µM (inactive)
- GI50 (SR): 1.34 µM (inactive)
- GI50 (SW-620): 3.08 µM (inactive)
- GI50 (T47D): 1.33 µM (inactive)
- GI50 (TK-10): 2.55 µM (inactive)
- GI50 (U-251): 2.45 µM (inactive)
- GI50 (UACC-257): 1.7 µM (inactive)
- GI50 (UACC-62): 1.37 µM (inactive)
- GI50 (UO-31): 1.87 µM (inactive)

SMILES: COC(=O)c1c(O)ccc2c1c1cc3ccccc3c(O)c1n2CCc1ccc(OC)c(OC)c1
- GI50 (786-0): 91.8 µM (inactive)
- GI50 (A498): > 100 µM (inactive)
- GI50 (A549): 43.2 µM (inactive)
- GI50 (ACHN): 83.4 µM (inactive)
- GI50 (BT-549): 16.7 µM (inactive)
- GI50 (CAKI-1): 68.7 µM (inactive)
- GI50 (CCRF-CEM): 30.1 µM (inactive)
- GI50 (COLO 205): 15.5 µM (inactive)
- GI50 (DU-145): 96.6 µM (inactive)
- GI50 (EKVX): > 100 µM (inactive)
- GI50 (HCC 2998): 27.4 µM (inactive)
- GI50 (HCT-116): 97.1 µM (inactive)
- GI50 (HCT-15): 61.5 µM
- GI50 (HL-60): 65.9 µM (inactive)
- GI50 (HOP-62): > 100 µM (inactive)
- GI50 (HOP-92): 31.3 µM (inactive)
- GI50 (HT-29): 1.79 µM (inactive)
- GI50 (Hs-578T): 31.4 µM (inactive)
- GI50 (IGROV-1): 42.2 µM (inactive)
- GI50 (K562): 87.1 µM (inactive)
- GI50 (KM12): 51.3 µM (inactive)
- GI50 (M14): 86.7 µM (inactive)
- GI50 (MCF7): 65.8 µM (inactive)
- GI50 (MDA-MB-231): > 100 µM (inactive)
- GI50 (MDA-MB-435): 53.7 µM (inactive)
- GI50 (MDA-N): 57.7 µM (inactive)
- GI50 (MOLT-4): 89.3 µM (inactive)
- GI50 (Malme-3M): 59.4 µM (inactive)
- GI50 (NCI-H226): > 100 µM (inactive)
- GI50 (NCI-H23): 93.1 µM (inactive)
- GI50 (NCI-H460): 20.9 µM (inactive)
- GI50 (NCI-H522): 21.1 µM (inactive)
- GI50 (NCI/ADR-RES): 51.6 µM (inactive)
- GI50 (OVCAR-3): 68.2 µM (inactive)
- GI50 (OVCAR-4): 42.1 µM (inactive)
- GI50 (OVCAR-5): > 100 µM (inactive)
- GI50 (OVCAR-8): 63.4 µM (inactive)
- GI50 (PC-3): 59.8 µM (inactive)
- GI50 (RPMI-8226): 18.9 µM (inactive)
- GI50 (RXF 393): > 100 µM (inactive)
- GI50 (SF-268): 76.4 µM (inactive)
- GI50 (SF-295): 96.8 µM (inactive)
- GI50 (SF-539): 98.9 µM (inactive)
- GI50 (SK-MEL-28): 17.4 µM (inactive)
- GI50 (SK-MEL-2): 58.2 µM (inactive)
- GI50 (SK-MEL-5): 26.2 µM (inactive)
- GI50 (SK-OV-3): > 100 µM (inactive)
- GI50 (SN12C): > 100 µM (inactive)
- GI50 (SNB-19): > 100 µM (inactive)
- GI50 (SR): 38.4 µM (inactive)
- GI50 (T47D): 42.9 µM (inactive)
- GI50 (TK-10): > 100 µM (inactive)
- GI50 (U-251): > 100 µM (inactive)
- GI50 (UACC-257): > 100 µM (inactive)
- GI50 (UACC-62): > 100 µM (inactive)
- GI50 (UO-31): 84.1 µM (inactive)

SMILES: CS(=O)(=O)Nc1ccc(NCc2c[nH]c3ccc4ncccc4c23)cc1
- GI50 (786-0): 29.9 µM (inactive)
- GI50 (A498): 20.3 µM (inactive)
- GI50 (A549): 43.4 µM (inactive)
- GI50 (ACHN): 20.6 µM (inactive)
- GI50 (BT-549): 30.3 µM (inactive)
- GI50 (CAKI-1): 19.6 µM (inactive)
- GI50 (CCRF-CEM): 18.8 µM (inactive)
- GI50 (COLO 205): 18.6 µM (inactive)
- GI50 (DU-145): 26.1 µM (inactive)
- GI50 (EKVX): 40.4 µM (inactive)
- GI50 (HCT-116): 20.3 µM (inactive)
- GI50 (HCT-15): 27.2 µM
- GI50 (HL-60): 22.3 µM (inactive)
- GI50 (HOP-62): 36.5 µM (inactive)
- GI50 (HOP-92): 52.6 µM (inactive)
- GI50 (HT-29): 34.8 µM (inactive)
- GI50 (Hs-578T): 22.3 µM (inactive)
- GI50 (IGROV-1): 48.6 µM (inactive)
- GI50 (K562): 18.7 µM (inactive)
- GI50 (KM12): 17.5 µM (inactive)
- GI50 (LOX IMVI): 26.4 µM (inactive)
- GI50 (M14): 20.9 µM (inactive)
- GI50 (MCF7): 23.1 µM (inactive)
- GI50 (MDA-MB-231): 27.4 µM (inactive)
- GI50 (MDA-MB-435): 16.9 µM (inactive)
- GI50 (MDA-N): 18 µM (inactive)
- GI50 (MOLT-4): 13.6 µM (inactive)
- GI50 (Malme-3M): 23.7 µM (inactive)
- GI50 (NCI-H226): 26.2 µM (inactive)
- GI50 (NCI-H23): 14.1 µM (inactive)
- GI50 (NCI-H460): 30 µM (inactive)
- GI50 (NCI-H522): 18.5 µM (inactive)
- GI50 (NCI/ADR-RES): > 100 µM (inactive)
- GI50 (OVCAR-3): 31.1 µM (inactive)
- GI50 (OVCAR-4): 25.9 µM (inactive)
- GI50 (OVCAR-5): 40.3 µM (inactive)
- GI50 (OVCAR-8): 34 µM (inactive)
- GI50 (PC-3): 19 µM (inactive)
- GI50 (RPMI-8226): 11 µM (inactive)
- GI50 (RXF 393): 23.9 µM (inactive)
- GI50 (SF-268): 23.7 µM (inactive)
- GI50 (SF-295): 24.2 µM (inactive)
- GI50 (SF-539): 24.8 µM (inactive)
- GI50 (SK-MEL-28): 26.1 µM (inactive)
- GI50 (SK-MEL-2): 17.1 µM (inactive)
- GI50 (SK-MEL-5): 14.9 µM (inactive)
- GI50 (SK-OV-3): 50.8 µM (inactive)
- GI50 (SN12C): 25.8 µM (inactive)
- GI50 (SNB-19): 49.1 µM (inactive)
- GI50 (SNB-75): 30.3 µM (inactive)
- GI50 (SR): 13.3 µM (inactive)
- GI50 (SW-620): 32.3 µM (inactive)
- GI50 (T47D): 20.6 µM (inactive)
- GI50 (TK-10): 25.6 µM (inactive)
- GI50 (U-251): 23.6 µM (inactive)
- GI50 (UACC-257): 23.1 µM (inactive)
- GI50 (UACC-62): 15 µM (inactive)
- GI50 (UO-31): 33.3 µM (inactive)
